Assay results as given in the NIST ThermoML archive (doi:10.1016/j.tca.2009.04.012).
Numbers after ± are expanded uncertainties.

Legend:
[1] = molar heat capacity at constant pressure; details: 298.15 K, 101.33 kPa, Small sample (50 mg) DSC
[2] = for mass density: 298.15 K, 101.33 kPa; for Normal melting temperature: DTA
[3] = Molar enthalpy of transition or fusion; details: Crystal; DSC

SMILES: CC(=O)c1cccs1 [2-acetylthiophene]
- molar heat capacity at constant pressure ([1]; Liquid): 210.72 ± 10 J/K/mol
- mass density ([2]; Liquid): 1171 ± 5 kg/m3

SMILES: CC(=O)c1ccc[nH]1 [2-acetylpyrrole]
- molar heat capacity at constant pressure ([1]; Crystal): 132.04 ± 6.5 J/K/mol
- Normal melting temperature ([2]; Crystal): 89.82 ± 0.4 °C
- Molar enthalpy of transition or fusion [3]: 3.37 ± 0.263 kcal/mol

SMILES: CC(=O)c1ccco1 [2-acetylfuran]
- molar heat capacity at constant pressure ([1]; Crystal): 140.94 ± 6.6 J/K/mol
- mass density ([2]; Crystal): 1098 ± 5 kg/m3
- Normal melting temperature ([2]; Crystal): 28.47 ± 0.4 °C
- Molar enthalpy of transition or fusion [3]: 3.71 ± 0.165 kcal/mol
